How the values were obtained:
[1] = system: Human immunodeficiency virus type 1 reverse transcriptase (Human immunodeficiency virus 1), Q72547 [UNDEFINED MUTATION]; conditions: time 140.0 min, at 5 mM
[2] = molecular target: Human immunodeficiency virus type 1 reverse transcriptase (Human immunodeficiency virus 1, UniProt Q72547); assay: Inhibition of HIV-1 reverse transcriptase RT52A mutant using ABTS as substrate preincubated with compound for 1 hr followed by template-primer addition for 1 hr and measured 20 mins after substrate addition by absorbance based Roche colorimetric assay

Row | Compound | inhibition [1] [%] | IC50 [2] [µM]
1 | Oc1ccc(C(F)(F)F)cn1 | 35 | –
2 | O=C(O)c1cc2cc(F)ccc2[nH]1 [5-FLUOROINDOLE-2-CARBOXYLIC ACID] | 99 | 2900
3 | CNc1ccc(C(F)(F)F)cc1N | 35 | –
4 | NCCc1c(F)cccc1Cl | 99 | 2100
5 | N#Cc1c(N)cccc1F | 75 | –
6 | Nc1ccncc1Br | 99 | 2100
7 | NCc1cccc(Br)c1 | 96 | –
8 | Cc1c(CO)cnn1-c1ccc(F)cc1 | 55 | –
9 | O=c1[nH]cnc2cccc(F)c12 | 55 | –
10 | Brc1cn[nH]c1 | 22 | –
11 | Ic1cn[nH]c1 | 24 | –

Reference: ChEMBL document CHEMBL5380870, “Halo Library, a Tool for Rapid Identification of Ligand Binding Sites on Proteins Using Crystallographic Fragment Screening” (J Med Chem, 2023)
